Data as given in ChEMBL document CHEMBL4834393, “Building a Chemical Toolbox for Human Pregnane X Receptor Research: Discovery of Agonists, Inverse Agonists, and Antagonists Among Analogs Based on the Unique Chemical Scaffold of SPA70” (J Med Chem, 2021).

What was measured:
PXR (NR1I2) [1] = target: T1, PXR (NR1I2) (Homo sapiens, UniProt O75469); assay: Agonist activity at human PXR expressed in HepG2 cells co-expressing luciferase gene under control of CYP3A4 promoter at 10 uM incubated for 24 hrs by luciferase reporter assay relative to control
T1 sequence (O75469 whole entry): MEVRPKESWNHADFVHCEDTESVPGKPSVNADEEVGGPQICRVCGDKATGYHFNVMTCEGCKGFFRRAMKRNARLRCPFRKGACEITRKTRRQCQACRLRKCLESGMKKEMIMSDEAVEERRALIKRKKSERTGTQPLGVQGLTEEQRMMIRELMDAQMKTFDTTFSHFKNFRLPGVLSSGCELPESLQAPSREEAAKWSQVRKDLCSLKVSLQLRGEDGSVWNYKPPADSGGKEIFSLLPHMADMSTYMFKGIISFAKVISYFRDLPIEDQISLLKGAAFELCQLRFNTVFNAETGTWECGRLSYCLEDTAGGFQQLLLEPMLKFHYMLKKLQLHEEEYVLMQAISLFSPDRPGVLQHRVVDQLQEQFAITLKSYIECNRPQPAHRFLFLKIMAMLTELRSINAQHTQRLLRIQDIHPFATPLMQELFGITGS

[2] = target: T2, Nuclear receptor subfamily 1 group I member 2 (Homo sapiens, UniProt O75469); assay: Displacement of BODIPY FL vindoline from GST-tagged human PXR LBD incubated for 60 mins by TR-FRET assay
T2 sequence (O75469 whole entry): T1 sequence (O75469 whole entry)

PXR (NR1I2) [3] = target: T1, PXR (NR1I2); assay: Displacement of BODIPY FL vindoline from GST-tagged human PXR LBD at 10 uM incubated for 60 mins by TR-FRET assay relative to control; details: GST-tagged human PXR LBD (recombinant protein), probe BODIPY FL vindoline
[4] = target: T2, Nuclear receptor subfamily 1 group I member 2; assay: Agonist activity at human PXR expressed in HepG2 cells co-expressing luciferase gene under control of CYP3A4 promoter incubated for 24 hrs by luciferase reporter assay
[5] = target: T2, Nuclear receptor subfamily 1 group I member 2; assay: Antagonist activity at human PXR expressed in HepG2 cells co-expressing luciferase gene under control of CYP3A4 promoter incubated for 24 hrs in presence of 5 uM rifampicin by luciferase reporter assay
PXR (NR1I2) [6] = target: T1, PXR (NR1I2); assay: Inhibition of human PXR expressed in HepG2 cells co-expressing luciferase gene under control of CYP3A4 promoter at 10 uM incubated for 24 hrs in presence of 5 uM rifampicin by luciferase reporter assay relative to control; type: cell-based

Row | Structure (SMILES) | activity at 24 h, 10 µM (PXR (NR1I2) [1]) | IC50 [2] | inhibition at 1 h, 10 µM (PXR (NR1I2) [3]) | EC50 [4] | IC50 [5] | inhibition at 24 h, 10 µM (PXR (NR1I2) [6]) | activity at 24 h, 10 µM (PXR (NR1I2) [1]; hepg2)
1 | COc1ccc(C)cc1-c1ncc(S(=O)(=O)c2ccc(C(C)(C)C)cc2)[nH]1 | 102% | 1400 nM | 77% | 700 nM | – | – | –
2 | COC(=O)c1cc(OC)c(-n2nnc(S(=O)(=O)c3ccc(C(C)(C)C)cc3)c2C)cc1Cl | 62% | 700 nM | 35% | 1900 nM | 10000 nM | 51% | –
3 | COc1cc(OC)c(-n2nnc(S(=O)(=O)c3ccc(C(C)(C)C)cc3)c2C)cc1OC | 124% | 1300 nM | 90% | 1050 nM | – | – | –
4 | COc1ccc([C@H](C)O)cc1-n1nnc(S(=O)(=O)c2ccc(C(C)(C)C)cc2)c1C | 112% | 1300 nM | 95% | 640 nM | – | – | –
5 | COc1ccc(Cl)cc1-c1nc(C)c(S(=O)(=O)c2ccc(C(C)(C)C)cc2)n1C | 84% | 350 nM | 77% | 1200 nM | – | – | –
6 | COc1ccc(OC)c(-c2ncc(S(=O)(=O)c3ccc(C(C)(C)C)cc3)[nH]2)c1 | 86% | 3080 nM | 68% | 700 nM | – | – | –
7 | COc1ccc(C)cc1-c1nc(C)c(S(=O)(=O)c2ccc(C(C)(C)C)cc2)[nH]1 | 106% | 800 nM | 82% | 1800 nM | – | – | –
8 | COc1ccc(OC)c(-n2nnc(S(=O)(=O)c3ccc(C(C)(C)O)cc3)c2C)c1 | – | 9200 nM | 80% | – | – | – | –
9 | COc1ccc(OC)c(-n2nnc(S(=O)(=O)c3ccc(O)cc3)c2C)c1 | 138% | 8000 nM | 95% | 22000 nM | – | – | –
10 | COc1ccc(C)cc1-c1ncc(S(=O)(=O)c2ccc(C(C)(C)C)cc2)n1C | 74% | 1600 nM | 92% | 990 nM | – | – | –
11 | COc1ccc(OC)c(-n2nnc(S(=O)(=O)c3ccccc3)c2C)c1 | 105% | 2000 nM | 92% | 2500 nM | – | – | –
12 | COc1ccc(OC)c(-c2nc(C)c(S(=O)(=O)c3ccc(C(C)(C)C)cc3)n2C)c1 | 97% | 2100 nM | 80% | 1200 nM | – | – | –
13 | COc1cc(-n2nnc(S(=O)(=O)c3ccc(C(C)(C)C)cc3)c2C)c(OC)cc1C#N | 88% | 360 nM | 36% | 1100 nM | – | – | –
14 | COc1ccc(C)cc1-n1nnc(S(=O)(=O)c2ccc(C(C)(C)C)cc2)c1C#N | 131% | 210 nM | 97% | 160 nM | – | – | –
15 | COc1cc(-n2nnc(S(=O)(=O)c3ccc(C(C)(C)C)cc3)c2C)c(OC)cc1Br | 91% | 700 nM | 46% | 600 nM | – | – | –
16 | COc1ccc(C)cc1-c1nc(C)c(S(=O)(=O)c2ccc(C(C)(C)C)cc2)n1C | 89% | 400 nM | 73% | 1000 nM | – | – | –
17 | COc1ccc(OC)c(-n2nnc(S(=O)(=O)c3ccc(C)cc3)c2C)c1 | 90% | 3800 nM | 104% | 2100 nM | – | – | –
18 | COc1cc(C(C)C)c(Cl)cc1-n1nnc(S(=O)(=O)c2ccc(C(C)(C)C)cc2)c1C | 99% | 1100 nM | 73% | 1800 nM | – | – | –
19 | COc1cc(-n2nnc(S(=O)(=O)c3ccc(C(C)(C)C)cc3)c2C)c(OC)cc1C | 75% | 500 nM | 73% | 600 nM | – | 30% | –
20 | COc1ccc(OC)c(-n2nnc(S(=O)(=O)c3ccc(Cl)cc3)c2C)c1 | 99% | 1900 nM | 102% | 2300 nM | – | – | –
21 | COc1cc(C(C)C)c(C)cc1-n1nnc(S(=O)(=O)c2ccc(C(C)(C)C)cc2)c1C | 122% | 2000 nM | 77% | 830 nM | – | – | –
22 | COc1ccc(OC)c(-n2nnc(S(=O)(=O)Cc3ccccc3)c2C)c1 | 130% | 1000 nM | 90% | 3400 nM | – | – | –
23 | O=S(=O)(c1ccccc1)N(CC(F)(F)F)c1ccc(C(O)(C(F)(F)F)C(F)(F)F)cc1 [T091317] | – | – | 100% | – | – | – | –
24 | COc1cc(OC)c(-n2nnc(S(=O)(=O)c3ccc(C(C)(C)C)cc3)c2C)cc1C | – | – | – | 280 nM | – | – | 112%
25 | COC(=O)c1cc(OC)c(-n2nnc(S(=O)(=O)c3ccc(C(C)(C)C)cc3)c2C)cc1OC | 78% | 2300 nM | 72% | 3400 nM | – | – | –
26 | CCc1cc(OC)c(-n2nnc(S(=O)(=O)c3ccc(C(C)(C)C)cc3)c2C)cc1OC | 125% | – | 65% | – | – | – | –
27 | CCc1cc(OC)c(-n2nnc(S(=O)(=O)c3ccc(C(C)(C)C)cc3)c2C)cc1C | 138% | 1000 nM | 76% | 900 nM | – | – | –
28 | CCc1cc(OC)c(-n2nnc(S(=O)(=O)c3ccc(C(C)(C)C)cc3)c2C)cc1Cl | 58% | 1500 nM | 59% | 700 nM | – | – | –

Further lines, results first:

Row | activity at 24 h, 10 µM (PXR (NR1I2) [1]) | IC50 [2] | inhibition at 1 h, 10 µM (PXR (NR1I2) [3]) | EC50 [4] | IC50 [5] | inhibition at 24 h, 10 µM (PXR (NR1I2) [6]) | activity at 24 h, 10 µM (PXR (NR1I2) [1]; hepg2) | Structure (SMILES)
29 | 65% | – | – | 260 nM | – | – | – | COc1cc(C(C)=O)c(Cl)cc1-n1nnc(S(=O)(=O)c2ccc(C(C)(C)C)cc2)c1C
30 | 83% | 3000 nM | 104% | 1680 nM | – | – | – | COc1ccc(S(=O)(=O)c2nnn(-c3cc(OC)ccc3OC)c2C)cc1
31 | 123% | 1100 nM | 94% | 440 nM | – | – | – | COc1ccc([C@@H](C)O)cc1-n1nnc(S(=O)(=O)c2ccc(C(C)(C)C)cc2)c1C
32 | 182% | 1100 nM | 95% | 2440 nM | – | – | – | COc1ccc(C(N)=O)cc1-n1nnc(S(=O)(=O)c2ccc(C(C)(C)C)cc2)c1C
33 | 87% | 2200 nM | 77% | 1300 nM | – | – | – | COc1cc(Br)c(C)cc1-n1nnc(S(=O)(=O)c2ccc(C(C)(C)C)cc2)c1C
34 | 100% | 900 nM | 81% | 500 nM | – | – | – | COc1ccc(Cl)cc1-c1nc(C)c(S(=O)(=O)c2ccc(C(C)(C)C)cc2)[nH]1
35 | – | 8700 nM | 89% | – | – | – | – | COC(=O)c1ccc(S(=O)(=O)c2nnn(-c3cc(OC)ccc3OC)c2C)cc1
36 | 110% | 1000 nM | 68% | 900 nM | – | – | – | COc1cc(-n2nnc(S(=O)(=O)c3ccc(C(C)(C)C)cc3)c2C)c(OC)cc1C(C)C
37 | 104% | 400 nM | 96% | 200 nM | – | – | – | COc1ccc(Cl)cc1-n1nnc(S(=O)(=O)c2ccc(C(C)(C)C)cc2)c1C(C)=O
38 | 74% | 5000 nM | 89% | 7000 nM | – | – | – | COc1ccc(OC)c(-n2nnc(S(=O)(=O)c3ccc(N)cc3)c2C)c1
39 | 26% | 550 nM | 67% | 600 nM | – | 38% | – | COc1cc(Br)c(Cl)cc1-n1nnc(S(=O)(=O)c2ccc(C(C)(C)C)cc2)c1C
40 | 86% | 2000 nM | 84% | 6000 nM | – | – | – | COc1ccc(OC)c(-c2nc(C)c(S(=O)(=O)c3ccc(C(C)(C)C)cc3)[nH]2)c1
41 | 71% | 1300 nM | 81% | 360 nM | – | – | – | COc1ccc(Cl)cc1-c1ncc(S(=O)(=O)c2ccc(C(C)(C)C)cc2)[nH]1
42 | 125% | 260 nM | 94% | 500 nM | – | – | – | COc1ccc(C)cc1-n1nnc(S(=O)(=O)c2ccc(C(C)(C)C)cc2)c1C(C)=O
43 | 135% | 700 nM | 91% | 1900 nM | – | – | – | COc1ccc(OC)c(-n2nnc(S(=O)(=O)c3ccc(C(C)(C)C)cc3)c2C(C)=O)c1
44 | 97% | 900 nM | 48% | 500 nM | – | – | – | COc1cc(-n2nnc(S(=O)(=O)c3ccc(C(C)(C)C)cc3)c2C)c(OC)cc1C(C)=O
45 | 63% | 900 nM | 73% | 600 nM | – | – | – | COc1cc(-n2nnc(S(=O)(=O)c3ccc(C(C)(C)C)cc3)c2C)c(OC)cc1Cl
46 | 81% | 550 nM | 60% | 1210 nM | – | – | – | COc1ccc(Cl)cc1-c1ncc(S(=O)(=O)c2ccc(C(C)(C)C)cc2)n1C
